Literature values in patent US4134792A, “Specific binding assay with an enzyme modulator as a labeling substance” (Miles Laboratories, Inc., priority 1976, dated 1979).

System: glycogen synthetase
Set-up: key: inhibitory or negative effectors are indicated by (-); stimulatory or positive effectors are indicated by (+)
Settings: yeast and lamb muscle; cited from earlier work

## O=P(O)(O)OC[C@H]1OC(O)[C@H](O)[C@@H](O)[C@@H]1O (stereo partly shown) [glucose-6-phosphate]
  allosteric effector: inhibitory (-) or stimulatory (+): +
